Measurements: patent US6737383B1, “Herbicidal oxadiazolidines” (priority 1999, dated 2004)

Legend:
[1] = tested on: crabgrass; assay: Test B pre/postemergence crabgrass; assay type: in vivo, Digitaria sanguinalis
Summary of the method: (§1)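 Test chemicals in a non-phytotoxic solvent mixture with surfactant were sprayed preemergence onto planted seeds and postemergence onto plants 2 to 18 cm tall (1- to 4-leaf stage). After twelve to sixteen days in a greenhouse, injury was visually rated against untreated controls from 0 (no effect) to 10 (complete control).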

[2] = tested on: giant foxtail; assay: Test B pre/postemergence giant foxtail; assay type: in vivo, Setaria faberii
Summary of the method: as §1

[3] = tested on: common pursiane; assay: Test D common purslane; assay type: in vivo, Portulaca oleracea; conditions: Preemergence, 0 to 100 scale
Excerpt: Seeds, tubers, or plant parts of Alexandergrass (Brachiaria plantaginea), bermuda-grass (Cynodon dactylon), common pursiane (Portulaca oleracea), common ragweed (Ambrosia elatior), common groundsel (Senecio vulgaris), dallisgrass (Paspalum dilatatum), goosegrass (Eleusine indica), guineagrass (Panicum maximum), itchgrass (Rottboellia exaltata), Johnson grass (Sorghum halepense), large crabgrass (Digitaria sanguinalis), pitted morningglory (Ipomoea lacunosa), purple nutsedge (Cyperus rotundus), sandbur (Cenchrus echinatus), sourgrass (Trichachne insularis), Spanishneedles (Bidens bipinnata), surinam grass (Brachiaria decumbens) and tall mallow (Malva sylvestris) were planted into greenhouse pots of flats containing greenhouse planting medium. Plant species were grown in separate pots or individual compartments. Preemergence applications were made within one day of planting the seed or plant part.
Test chemicals were formulated in a non-phytotoxic solvent mixture which included a surfactant and applied preemergence to the surface of the pot containing seeds in a sandy loam soil. Untreated control pots and treated pots were placed in the greenhouse for growth and visually evaluated for injury 14 to 21 days after herbicide application. Plant response ratings, summarized in Table C, are based on a 0 to 100 scale where 0 is no injury and 100 is complete control. A dash (−) response means no test result.

[4] = tested on: winter barley; assay: Test E winter barley; assay type: in vivo, Hordeum vulgare; conditions: Preemergence
[5] = tested on: winter wheat; assay: Test E winter wheat; assay type: in vivo, Triticum aestivum; conditions: Postemergence
Summary of the method: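 For postemergence, plants at the 1- to 4-leaf stage, in a 60:40 mix of sandy loam and potting mix, treated with compound formulated in a surfactant-containing non-phytotoxic solvent. Visual assessment versus untreated controls followed roughly 21–28 days in the greenhouse.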

[6] = tested on: green foxtail; assay: Test E green foxtail; assay type: in vivo, Setaria viridis; conditions: Preemergence
[7] = tested on: Italian ryegrass; assay: Test E Italian ryegrass; assay type: in vivo, Lolium multiflorum; conditions: Preemergence
[8] = tested on: wild oat; assay: Test E wild oat; assay type: in vivo, Avena fatua; conditions: Preemergence
[9] = tested on: large crabgrass; assay: Test D large crabgrass; assay type: in vivo, Digitaria sanguinalis; conditions: Preemergence, 0 to 100 scale
Summary of the method: (§2)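 Greenhouse pots, seeds in sandy loam; compounds formulated in non-phytotoxic solvent with surfactant; preemergence treatments went on the soil surface within one day of planting. Injury rated visually 14 to 21 days after application on a 0 (none) to 100 (complete control) scale.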

[10] = tested on: winter wheat; assay: Test E winter wheat; assay type: in vivo, Triticum aestivum; conditions: Preemergence
[11] = tested on: wheat; assay: Test B pre/postemergence wheat; assay type: in vivo, Triticum aestivum
Summary of the method: as §1

[12] = tested on: duck salad; assay: Test B flood test duck salad; assay type: in vivo, Heteranthera limosa
Summary of the method: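 Plants were grown to the 2-leaf stage before treatment with test chemical, then held in a greenhouse for twelve to sixteen days. Injury was visually rated against untreated controls on a 0–10 scale, where 0 is no effect and 10 is complete control.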

[13] = tested on: sandbur; assay: Test D sandbur; assay type: in vivo, Cenchrus echinatus; conditions: Preemergence, 0 to 100 scale
Summary of the method: as §2

[14] = tested on: Spanishneedles; assay: Test D Spanishneedles; assay type: in vivo, Bidens bipinnata; conditions: Preemergence, 0 to 100 scale
Summary of the method: as §2

[15] = tested on: blackgrass; assay: Test E blackgrass; assay type: in vivo, Alopecurus myosuroides; conditions: Preemergence
[16] = Postemergence, Rate 62 g/ha, scale 0 to 10, 0 is no effect, 10 is complete control
[17] = Postemergence, Rate 250 g/ha, scale 0 to 10, 0 no effect, 10 complete control
[18] = Postemergence, Rate 1000 g/ha, scale 0 to 10 (0 no effect, 10 complete control)
[19] = Preemergence, Rate 31 g/ha, visual rating, scale 0 to 10 (0 no effect, 10 complete control)
[20] = Preemergence, Rate 62 g/ha, scale 0 to 10, 0 is no effect, 10 is complete control
[21] = Preemergence, Rate 125 g/ha, scale 0 to 10 (0 no effect, 10 complete control)
[22] = Preemergence, Rate 250 g/ha, scale of 0 to 10 where 0 is no effect and 10 is complete control
[23] = Preemergence, Rate 500 g/ha, scale 0 (no effect) to 10 (complete control)
[24] = Rate 31 g/ha, Postemergence, scale 0 to 10
[25] = Rate 125 g/ha, Postemergence, scale 0 to 10, 0 no effect, 10 complete control
[26] = Rate 500 g/ha, Postemergence, 0 to 10 scale (0 no effect, 10 complete control)
[27] = Rate 1000 g/ha, Preemergence, scale 0 to 10 (0 no effect, 10 complete control)
[28] = Rate 16 g/ha, 0 no injury, 100 complete control
[29] = Rate 32 g/ha, 0 no injury, 100 complete control
[30] = Rate 64 g/ha, 0 no injury, 100 complete control
[31] = Rate 125 g/ha, 0 no injury, 100 complete control
[32] = Rate 125 g/ha, 0 to 100 scale (0 no effect, 100 complete control)
[33] = Rate 500 g/ha, 0 to 100 scale where 0 is no effect and 100 is complete control
[34] = Rate 1000 g/ha, 0 to 100 scale where 0 is no effect and 100 is complete control

## Cc1ccccc1-n1c(=O)on(C(=O)N(c2ccc(F)cc2)C(C)C)c1=O [Compound 4]
[1]; [16]
  Crabgrass plant response rating: 0
[1]; [17]
  Crabgrass plant response rating: 8
[1]; [18]
  Crabgrass plant response rating: 8
[1]; [19]
  Crabgrass plant response rating: 3
[1]; [20]
  Plant response rating, Crabgrass: 3
[1]; [21]
  Plant response rating, Crabgrass: 10
[1]; [22]
  Plant response rating, Crabgrass: 10
[1]; [23]
  Crabgrass plant response rating: 10
[1]; [24]
  Crabgrass plant response rating: 0
[1]; [25]
  Crabgrass plant response rating: 5
[1]; [26]
  Crabgrass plant response rating: 8
[1]; [27]
  Plant response rating, Crabgrass: 10
[2]; [16]
  Giant foxtail plant response rating: 0
[2]; [17]
  Giant foxtail plant response rating: 3
[2]; [18]
  Giant foxtail plant response rating: 6
[2]; [19]
  Giant foxtail plant response rating: 8
[2]; [20]
  Plant response rating, Giant foxtail: 9
[2]; [21]
  Plant response rating, Giant foxtail: 9
[2]; [22]
  Plant response rating, Giant foxtail: 10
[2]; [23]
  Giant foxtail plant response rating: 10
[2]; [24]
  Giant foxtail plant response rating: 0
[2]; [25]
  Giant foxtail plant response rating: 5
[2]; [26]
  Giant foxtail plant response rating: 4
[2]; [27]
  Plant response rating, Giant foxtail: 10
[3]; [28]
  Plant response rating, C. purslane: 0
[3]; [29]
  Plant response rating, C. purslane: 0
[3]; [30]
  Plant response rating, C. purslane: 0
[3]; [31]
  Plant response rating, C. purslane: 0
[3]; Rate 250 g/ha
  Plant response rating, C. purslane: 0
[3]; Rate 500 g/ha
  Plant response rating, C. purslane: 0
[4]; [32]
  Plant response rating, Barley (winter): 10
[4]; Rate 250 g/ha, 0 to 100 scale
  Plant response rating, Barley (winter): 10
[4]; [33]
  Plant response rating, Barley (winter): 10
[4]; [34]
  Plant response rating, Barley (winter): 10
[5]; Rate 125 g/ha, 0 to 100 scale
  Plant response rating, Wheat (winter): 0
[5]; Rate 250 g/ha, 0 to 100 scale (0 no effect, 100 complete control)
  Plant response rating, Wheat (winter): 0
[5]; Rate 1000 g/ha, 0 to 100 scale, 0 is no effect and 100 is complete control
  Plant response rating, Wheat (winter): 0
[5]; Rate 500 g/ha, 0 to 100 scale, 0 no effect, 100 complete control
  Plant response rating, Wheat (winter): 0
[6]; [32]
  Plant response rating, Green foxtail: 50
[6]; Rate 250 g/ha, 0 to 100 scale
  Plant response rating, Green foxtail: 55
[6]; [33]
  Plant response rating, Green foxtail: 100
[6]; [34]
  Plant response rating, Green foxtail: 100
[7]; [32]
  Plant response rating, I. Ryegrass: 20
[7]; Rate 250 g/ha, 0 to 100 scale
  Plant response rating, I. Ryegrass: 20
[7]; [33]
  Plant response rating, I. Ryegrass: 50
[7]; [34]
  Plant response rating, I. Ryegrass: 85
[8]; [32]
  Plant response rating, Wild oat: 10
[8]; [33]
  Plant response rating, Wild oat: 25
[8]; [34]
  Plant response rating, Wild oat: 50
[9]; [28]
  Plant response rating, Large crabgrass: 100
[9]; [29]
  Plant response rating, Large crabgrass: 100
[9]; [30]
  Plant response rating, Large crabgrass: 98
[9]; [31]
  Plant response rating, Large crabgrass: 100
[9]; Rate 250 g/ha
  Plant response rating, Large crabgrass: 100
[9]; Rate 500 g/ha
  Plant response rating, Large crabgrass: 100
[10]; [32]
  Plant response rating, Wheat (winter): 0
[10]; Rate 250 g/ha, 0 to 100 scale
  Plant response rating, Wheat (winter): 0
[10]; [33]
  Plant response rating, Wheat (winter): 0
[10]; [34]
  Plant response rating, Wheat (winter): 0
[11]; [16]
  Wheat plant response rating: 0
[11]; [17]
  Wheat plant response rating: 0
[11]; [18]
  Wheat plant response rating: 0
[11]; [19]
  Wheat plant response rating: 0
[11]; [20]
  Plant response rating, Wheat: 0
[11]; [21]
  Plant response rating, Wheat: 0
[11]; [22]
  Plant response rating, Wheat: 0
[11]; [23]
  Wheat plant response rating: 0
[11]; [25]
  Wheat plant response rating: 0
[11]; [27]
  Plant response rating, Wheat: 0
[12]; [16]
  Ducksalad plant response rating: 0
[12]; [18]
  Ducksalad plant response rating: 3
[12]; Rate 31 g/ha, Postemergence section (flood test species), scale 0 to 10
  Ducksalad plant response rating: 0
[12]; Rate 125 g/ha, Postemergence section (flood test species), scale 0 to 10, 0 no effect, 10 complete control
  Ducksalad plant response rating: 0
[12]; Rate 500 g/ha, Postemergence section of Table B, 0 to 10 scale (0 no effect, 10 complete control)
  Ducksalad plant response rating: 2
[12]; flood test, listed under Postemergence, Rate 250 g/ha, scale 0 to 10, 0 no effect, 10 complete control
  Ducksalad plant response rating: 2
[13]; [28]
  Plant response rating, Sandbur: 0
[13]; [29]
  Plant response rating, Sandbur: 0
[13]; [30]
  Sandbur plant response rating: 65
[13]; [31]
  Sandbur plant response rating: 30
[13]; Rate 250 g/ha
  Plant response rating, Sandbur: 90
[13]; Rate 500 g/ha
  Plant response rating, Sandbur: 100
[14]; [28]
  Plant response rating, Spanishneedles: 0
[14]; [30]
  Spanishneedles plant response rating: 0
[14]; [31]
  Spanishneedles plant response rating: 40
[14]; Rate 500 g/ha
  Plant response rating, Spanishneedles: 0
[15]; [32]
  Plant response rating, Blackgrass: 30
[15]; Rate 250 g/ha, 0 to 100 scale
  Plant response rating, Blackgrass: 50
[15]; [33]
  Plant response rating, Blackgrass: 90
[15]; [34]
  Plant response rating, Blackgrass: 100
